Here are results for one molecule from paper PMC10614203, “Synthesis, Structure–Activity Relationships, Radiofluorination, and Biological Evaluation of [^18F]RM365, a Novel Radioligand for Imaging the Human Cannabinoid Receptor Type 2 (CB2R) in the Brain with PET” (Journal of Medicinal Chemistry, 2023).

Structures are written as SMILES. Where “and” joins values, the source holds several entries; their conditions need not be identical. Equal values may be shown once.

One test addresses T1, hCB2R (Homo sapiens, UniProt P34972).
T1 construct: host or cells: CHO cells, stably transfected
Put plainly: Homologous competition binding of [18F]RM365 / RM365 on membranes of hCB2R-CHO cells. The text has this: To complement the indirect determination of the affinity of RM365 toward the CB2R in vitro, we performed a direct binding study with the radiofluorinated ligand using preparations of CHO cells stably transfected with the cloned human receptor and one spleen from a female SPRD rat expressing high levels of the receptor in the leukocytes.[12] The results of the homologous competition study shown in Figure 6 confirm the good affinity of [^18F]RM365 toward the human CB2R with a KD value of about 2 nM. […] Furthermore, the measurement signal obtained from the incubation of [^18F]RM365 with the homogenate of rat spleen was in the range of the values obtained for the nonspecific binding of the radioligand toward the preparation of CB2R-transfected CHO cells. We conclude that RM365 binds the rat CB2R with lower affinity than the human CB2R but expect no significant interactions of the radioligand with nonspecific binding sites.[82] […]
The nonspecific binding of the respective radioligand was determined by coincubation with CP55,940 (final concentration 10^–5 M). The normalized values of bound activity (% specific binding) were calculated and plotted vs the logarithm of the concentration of the respective test compound. […]

A further test addresses T2, rat CB2R (Rattus norvegicus, UniProt Q9QZN9).
T2 construct: one spleen from a female SPRD rat expressing high levels of the receptor in the leukocytes; from tissue; host or cells: rat spleen (female SPRD rat; autoradiography also described with male F433 rats)
T2 sequence (Q9QZN9 1-360): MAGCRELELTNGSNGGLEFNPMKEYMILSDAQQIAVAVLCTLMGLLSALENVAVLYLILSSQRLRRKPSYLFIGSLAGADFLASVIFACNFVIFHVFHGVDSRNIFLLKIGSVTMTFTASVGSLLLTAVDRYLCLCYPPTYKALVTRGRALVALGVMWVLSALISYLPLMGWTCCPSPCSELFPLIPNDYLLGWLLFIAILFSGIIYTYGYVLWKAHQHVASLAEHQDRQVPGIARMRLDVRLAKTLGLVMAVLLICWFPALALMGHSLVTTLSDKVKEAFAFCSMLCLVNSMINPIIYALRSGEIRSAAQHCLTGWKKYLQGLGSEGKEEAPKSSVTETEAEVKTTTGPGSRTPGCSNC
Description: In vitro autoradiography on rat spleen cryosections. It is filed as binding. The following applies: Figure S2. The text has this: To complement the indirect determination of the affinity of RM365 toward the CB2R in vitro, we performed a direct binding study with the radiofluorinated ligand using preparations of CHO cells stably transfected with the cloned human receptor and one spleen from a female SPRD rat expressing high levels of the receptor in the leukocytes.[12] The results of the homologous competition study shown in Figure 6 confirm the good affinity of [^18F]RM365 toward the human CB2R with a KD value of about 2 nM. […] Furthermore, the measurement signal obtained from the incubation of [^18F]RM365 with the homogenate of rat spleen was in the range of the values obtained for the nonspecific binding of the radioligand toward the preparation of CB2R-transfected CHO cells. We conclude that RM365 binds the rat CB2R with lower affinity than the human CB2R but expect no significant interactions of the radioligand with nonspecific binding sites.[82] Because of the available rat model to assess the potential of [^18F]RM365 to cross the blood–brain barrier and to specifically label human CB2R—the hCB2R(D80N) model with high expression of human CB2R in the brain[31],[32],[66],[83]—we intended to confirm the initial findings from the rat homogenate by an autoradiographic study.
The in vitro autoradiographic experiments were performed according to a previously published protocol.[88] […]

T1 sequence (P34972 whole entry): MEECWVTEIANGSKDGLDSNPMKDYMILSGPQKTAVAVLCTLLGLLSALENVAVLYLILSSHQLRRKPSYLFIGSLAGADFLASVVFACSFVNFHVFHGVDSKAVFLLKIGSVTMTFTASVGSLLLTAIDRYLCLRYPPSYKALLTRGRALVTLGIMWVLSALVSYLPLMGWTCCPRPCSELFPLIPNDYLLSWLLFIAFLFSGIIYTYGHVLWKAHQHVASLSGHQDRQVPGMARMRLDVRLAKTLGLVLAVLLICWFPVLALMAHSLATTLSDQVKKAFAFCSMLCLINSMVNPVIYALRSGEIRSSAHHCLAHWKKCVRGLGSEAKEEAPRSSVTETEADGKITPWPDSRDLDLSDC

`CC1(C)Cc2ccc(C#N)cc2[C@@H]1NC(=O)c1cc2cc([18F])ccc2[nH]1` [[^18F]RM365]: the IC50 on hCB2R (0.078 nM [18F]RM365, increasing concentrations of RM365) amounted to 2.4 nM. For the same molecule, at hCB2R (0.078 nM [18F]RM365, single experiment in triplicate, KD = IC50 - concentration radioligand), the Kd is 2.32 nM and ~2 nM. Further, the “specific interaction with rat CB2R in spleen cryosections, in words” value on rat CB2R was “absence of a specific interaction”.

For orientation: IC50 means the midpoint of a concentration-inhibition curve. Read a low IC50 as inhibition by little substance. By Kd is commonly meant the constant that tells how readily two partners part at equilibrium. A low value points to a tighter complex.
